The values that follow come from ChEMBL document CHEMBL1144473, “Selective inhibition of carboxylesterases by isatins, indole-2,3-diones” (J Med Chem, 2007).

SMILES strings stand for the structures. Activity calls are given as the source filed them. The rule behind the calls is not given here.

Series [1] can be described thus: Inhibition of human intestinal carboxylesterase expressed in sf21 cells up to 100 uM.
Series [2] has as its target T1, Liver carboxylesterase 1 (Homo sapiens, UniProt P23141).
T1 sequence (P23141 whole entry): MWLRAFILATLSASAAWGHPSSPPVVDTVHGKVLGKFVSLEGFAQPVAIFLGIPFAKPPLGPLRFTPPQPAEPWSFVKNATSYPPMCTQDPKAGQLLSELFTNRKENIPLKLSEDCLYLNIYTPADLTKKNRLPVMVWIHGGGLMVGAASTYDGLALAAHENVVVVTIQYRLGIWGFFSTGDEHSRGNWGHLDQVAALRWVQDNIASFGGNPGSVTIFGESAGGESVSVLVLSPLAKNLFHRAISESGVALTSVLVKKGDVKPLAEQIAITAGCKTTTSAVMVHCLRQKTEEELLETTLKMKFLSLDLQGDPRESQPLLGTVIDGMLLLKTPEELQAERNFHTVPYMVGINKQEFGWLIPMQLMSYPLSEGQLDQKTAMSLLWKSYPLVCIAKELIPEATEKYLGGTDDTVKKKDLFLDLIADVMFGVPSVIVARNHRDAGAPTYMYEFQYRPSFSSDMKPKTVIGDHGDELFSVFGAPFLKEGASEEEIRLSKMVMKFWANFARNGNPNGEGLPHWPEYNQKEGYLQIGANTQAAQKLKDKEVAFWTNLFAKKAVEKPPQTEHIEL
Nature of the series: Inhibition of human liver CE1 expressed in sf21 cells up to 100 uM.

Series [3] can be described thus: Inhibition of rabbit liver carboxylesterase expressed in sf21 cells up to 100 uM. Conditions: Oryctolagus cuniculus.
The target of series [4] is T1, Liver carboxylesterase 1. Description: Inhibition of human liver CE1 expressed in sf21 cells. Format: cell-based.
Another series deals with Acetylcholinesterase (Homo sapiens, UniProt P22303).
Acetylcholinesterase, sequence (P22303 whole entry): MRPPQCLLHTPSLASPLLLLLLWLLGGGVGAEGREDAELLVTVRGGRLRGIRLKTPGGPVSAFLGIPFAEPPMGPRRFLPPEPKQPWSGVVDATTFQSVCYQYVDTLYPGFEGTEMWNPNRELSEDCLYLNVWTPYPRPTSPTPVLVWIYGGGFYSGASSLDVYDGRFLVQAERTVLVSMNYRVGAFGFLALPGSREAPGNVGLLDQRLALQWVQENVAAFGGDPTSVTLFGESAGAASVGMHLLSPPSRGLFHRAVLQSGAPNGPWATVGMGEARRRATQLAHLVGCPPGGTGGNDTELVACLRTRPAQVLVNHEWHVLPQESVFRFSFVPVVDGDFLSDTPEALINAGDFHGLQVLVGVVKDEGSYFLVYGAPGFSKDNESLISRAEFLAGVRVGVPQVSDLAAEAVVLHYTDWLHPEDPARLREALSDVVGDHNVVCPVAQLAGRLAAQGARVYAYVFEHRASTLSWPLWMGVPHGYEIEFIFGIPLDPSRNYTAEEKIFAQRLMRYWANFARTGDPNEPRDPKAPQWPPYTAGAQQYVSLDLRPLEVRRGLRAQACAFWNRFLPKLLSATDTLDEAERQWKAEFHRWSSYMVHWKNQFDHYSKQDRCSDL
The next series has as its target Cholinesterase (Homo sapiens, UniProt P06276).
Series [5] is described as follows: Inhibition of human intestinal carboxylesterase expressed in sf21 cells.
Series [6] is described as follows: Inhibition of rabbit liver carboxylesterase expressed in sf21 cells. Format: cell-based, Oryctolagus cuniculus.

Cholinesterase, sequence (P06276 whole entry): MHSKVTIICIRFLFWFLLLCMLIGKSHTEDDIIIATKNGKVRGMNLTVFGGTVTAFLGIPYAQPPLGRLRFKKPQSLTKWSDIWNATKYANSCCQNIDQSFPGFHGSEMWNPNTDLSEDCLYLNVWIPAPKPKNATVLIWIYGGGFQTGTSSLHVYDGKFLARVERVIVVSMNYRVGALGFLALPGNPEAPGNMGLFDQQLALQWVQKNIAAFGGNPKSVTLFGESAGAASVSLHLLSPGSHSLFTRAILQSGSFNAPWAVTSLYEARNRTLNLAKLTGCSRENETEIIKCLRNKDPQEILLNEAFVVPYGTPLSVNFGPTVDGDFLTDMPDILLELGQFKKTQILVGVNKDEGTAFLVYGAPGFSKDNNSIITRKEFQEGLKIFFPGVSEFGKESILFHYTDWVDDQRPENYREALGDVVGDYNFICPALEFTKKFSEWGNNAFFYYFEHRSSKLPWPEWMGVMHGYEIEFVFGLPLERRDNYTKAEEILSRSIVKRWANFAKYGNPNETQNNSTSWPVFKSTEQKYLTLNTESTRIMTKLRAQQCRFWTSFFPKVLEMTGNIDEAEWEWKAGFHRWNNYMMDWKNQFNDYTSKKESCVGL

For `c1ccc2c(c1)CCN2` [INDOLINE], the outcome in series [1] and in series [3] was inactive. At Liver carboxylesterase 1 [2], the Activity result is reported as “Not Active”.

Take `c1ccc2[nH]ccc2c1` [INDOLE]: the result in series [1] and in series [3] was inactive. The Activity result at Liver carboxylesterase 1 [2] is recorded as “Not Active”.

`O=C1Nc2ccccc2/C1=N/O`: the result in series [1] and in series [3] was inactive. For the same compound, at Liver carboxylesterase 1 [2], the Activity entry is “Not Active”.

Turning to `C1=Cc2ccccc2C1` [INDENE], the result in series [1] and in series [3] was inactive. Moreover, on Liver carboxylesterase 1 [2], the Activity result is reported as “Not Active”.

Regarding `c1ccc2c(c1)CCC2`, the result in series [1] and in series [3] was inactive. Also, the Activity result at Liver carboxylesterase 1 [2] is recorded as “Not Active”.

As a reminder, the Ki is a measure of affinity in units of concentration, obtained from inhibition or displacement. A lower Ki goes with tighter binding. Turning to `O=C(CN1C(=O)C(=O)c2ccccc21)Nc1ccc(O)cc1`, the Ki (on Liver carboxylesterase 1 [4]; on Acetylcholinesterase; on Cholinesterase; in series [5]; in series [6]) was more than 100 µM each time.

With `C=C(C)CN1C(=O)C(=O)c2cc(Br)ccc21`, the Ki on Liver carboxylesterase 1 [4] is 0.066 µM; at Acetylcholinesterase it was more than 100 µM; on Cholinesterase it was more than 100 µM; in series [5] it was 0.28 µM; in series [6], 0.13 µM.

Consider `CCc1ccc2c(c1)NC(=O)C2=O`, for which the Ki on Liver carboxylesterase 1 [4] is more than 100 µM; on Acetylcholinesterase, more than 100 µM; on Cholinesterase it was more than 100 µM; in series [5], more than 100 µM; in series [6], 29.5 µM.

Regarding `Cc1ccc(NCN2C(=O)C(=O)c3ccccc32)cc1`, the Ki at Liver carboxylesterase 1 [4] is 2.65 µM; on Acetylcholinesterase, more than 100 µM; on Cholinesterase, 18.1 µM; in series [5] it was 1.08 µM; in series [6] it was 7.4 µM.

With `O=C1C(=O)N(CN2CCSCC2)c2ccccc21`, the Ki is more than 100 µM at Liver carboxylesterase 1 [4]; more than 100 µM at Acetylcholinesterase; 98.9 µM at Cholinesterase; 22.2 µM in series [5]; more than 100 µM in series [6].

For `O=C1C(=O)N(CN2CCCCC2)c2ccccc21`, the Ki at Liver carboxylesterase 1 [4] is more than 100 µM; on Acetylcholinesterase it was more than 100 µM; at Cholinesterase, more than 100 µM; in series [5] it was 27.4 µM; in series [6], more than 100 µM.

As to `O=C1Nc2ccc([N+](=O)[O-])cc2C1=O` [5-NITROISATIN], the Ki on Liver carboxylesterase 1 [4] was more than 100 µM; at Acetylcholinesterase, more than 100 µM; at Cholinesterase, more than 100 µM; in series [5], more than 100 µM; in series [6], 6.43 µM.

In the case of `N/N=C1\C(=O)Nc2ccccc21`, the result in series [1] and in series [3] was inactive. Further, the Activity entry at Liver carboxylesterase 1 [2] was “Not Active”.

Take `O=C1Nc2c(F)cccc2C1=O`: the Ki (on Liver carboxylesterase 1 [4]; at Acetylcholinesterase; at Cholinesterase; in series [5]; in series [6]) was more than 100 µM each time.

Turning to `Cc1ccc2c(c1)C(=O)C(=O)N2`, the inhibition constant (Ki) was more than 100 µM at Liver carboxylesterase 1 [4]; more than 100 µM on Acetylcholinesterase; more than 100 µM at Cholinesterase; more than 100 µM in series [5]; 26.2 µM in series [6].

With `O=C1NC(=O)c2ccccc21` [PHTHALIMIDE], the result in series [1] and in series [3] was inactive. Also, at Liver carboxylesterase 1 [2], the Activity entry is given as “Not Active”.

Turning to `Cc1cccc2c1NC(=O)C2=O`, the Ki (at Liver carboxylesterase 1 [4]; at Acetylcholinesterase; at Cholinesterase; in series [5]; in series [6]) was more than 100 µM each time.

For `COc1ccc2c(c1)C(=O)C(=O)N2` [5-METHOXYISATIN], the Ki on Liver carboxylesterase 1 [4] was more than 100 µM; on Acetylcholinesterase it was more than 100 µM; at Cholinesterase it was more than 100 µM; in series [5], more than 100 µM; in series [6], 26.7 µM.

Turning to `O=C1C(=O)N(C(=O)CCl)c2ccccc21`, the Ki (on Liver carboxylesterase 1 [4]; at Acetylcholinesterase; on Cholinesterase; in series [5]; in series [6]) was more than 100 µM in each case.

Take `O=C1C(=O)N(Cc2ccc(Cl)c(Cl)c2)c2ccccc21`: the Ki was 0.031 µM on Liver carboxylesterase 1 [4]; 48.2 µM on Acetylcholinesterase; 12.6 µM at Cholinesterase; 0.067 µM in series [5]; 0.065 µM in series [6].

As to `O=C1C(=O)N(CCBr)c2ccccc21`, the Ki on Liver carboxylesterase 1 [4] was 0.29 µM; at Acetylcholinesterase, more than 100 µM; on Cholinesterase, 28.1 µM; in series [5], 1.58 µM; in series [6], 5.15 µM.

On to `O=C1C(=O)N(CN2CCOCC2)c2ccccc21`, for which the Ki was more than 100 µM at Liver carboxylesterase 1 [4]; more than 100 µM at Acetylcholinesterase; more than 100 µM on Cholinesterase; 22.5 µM in series [5]; more than 100 µM in series [6].

As for `O=C1c2ccccc2C(=O)N1c1ccccc1` [N-PHENYL-PHTHALIMIDE], the result in series [1] and in series [3] was inactive. In addition, the Activity result on Liver carboxylesterase 1 [2] is on record as “Not Active”.

On to `O=C1Nc2ccc(Br)cc2C1=O`, for which the Ki at Liver carboxylesterase 1 [4] is 31.7 µM; at Acetylcholinesterase, more than 100 µM; at Cholinesterase, more than 100 µM; in series [5], 13.3 µM; in series [6], 1.32 µM.

Consider `O=C1CC(=O)c2ccccc21`, for which the outcome in series [1] and in series [3] was inactive. For the same compound, on Liver carboxylesterase 1 [2], the Activity result was “Not Active”.

As for `O=C1Nc2cc(Cl)c(Cl)cc2C1=O`, the Ki was 21 µM on Liver carboxylesterase 1 [4]; more than 100 µM at Acetylcholinesterase; more than 100 µM at Cholinesterase; 16.6 µM in series [5]; 0.49 µM in series [6].
